According to patent US10245261B2, “Substituted indol-5-ol derivatives and their therapeutic applications” (NantBioScience, Inc., priority 2013, dated 2019):

How the values were obtained:
Assay in all cases: KinaseProfiler kinase assay
Type in all cases: biochemical
Aurora-A(h) = molecular target: T1, Aurora-A(h) (Homo sapiens, UniProt O14965); settings: read-out: % Inhibition @1 μM Auroro-A
T1 sequence (O14965 1-403): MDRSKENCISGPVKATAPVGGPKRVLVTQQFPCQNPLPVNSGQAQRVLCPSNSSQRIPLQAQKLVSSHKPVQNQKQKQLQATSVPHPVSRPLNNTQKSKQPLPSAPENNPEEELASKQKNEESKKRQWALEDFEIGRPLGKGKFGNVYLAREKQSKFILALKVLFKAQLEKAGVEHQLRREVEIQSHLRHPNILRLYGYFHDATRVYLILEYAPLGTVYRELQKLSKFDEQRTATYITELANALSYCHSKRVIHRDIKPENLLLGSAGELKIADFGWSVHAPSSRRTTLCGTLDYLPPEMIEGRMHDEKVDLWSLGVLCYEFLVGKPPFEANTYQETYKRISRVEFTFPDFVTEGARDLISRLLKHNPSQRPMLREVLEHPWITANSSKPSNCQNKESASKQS
Protocol: (§1) This example tests the inhibitory properties of representative compounds of the invention in c-Src kinase, Aurora-A kinase, Flt3 kinase, Ret kinase and TrkA Kinase assays (see, Daniele Fancelli et al, J. Med. Chem., 2006, 49 (24), pp 7247-7251). The KinaseProfiler™ Service Assay Protocols (Millipore) was used to test the kinase inhibiting activity of novel compounds from this invention. To do this, the buffer composition was as: 20 mM MOPS, 1 mM EDTA, 0.01% Brij-35, 5% Glycerol, 0.1% β-mercaptoethanol, 1 mg/mL BSA. Test compounds were initially dissolved in DMSO at the desired concentration, then serially diluted to the kinase assay buffer. In a final reaction volume of 25 μL, Aurora-A(h) (5-10 mU) is incubated with 8 mM MOPS pH 7.0, 0.2 mM EDTA, 200 μM LRRASLG (Kemptide), 10 mM MgAcetate and [γ^33P-ATP]. The reaction was initiated by the addition of the MgATP mix. After incubation for 40 minute at room temperature, the reaction was stopped by addition of 5 μL of a 3% phosphoric acid solution. 10 μL of the reaction was then spotted onto a P30 filtermat and washed three times for 5 minutes in 50 mM phosphoric acid and once in methanol prior to drying and scintillation counting. Wells containing substrate but no kinase and wells containing a phosphopeptide control were used to set 0% and 100% phosphorylation value, respectively.
(§2) The Kinase Hotspot℠ kinase assay was also used to test the compounds for IC50 or % inhibitions (Reaction Biology Corp.). Inhibitory IC50 values were determined by titration of compound at the optimal kinase concentration (Kinase EC50).

Ret(h) = Ret(h) (Homo sapiens, UniProt P07949)
Protocol: as §1, §2

Flt3(h) = molecular target: T2, Flt3(h) (Homo sapiens, UniProt P36888)
T2 sequence (P36888 27-993): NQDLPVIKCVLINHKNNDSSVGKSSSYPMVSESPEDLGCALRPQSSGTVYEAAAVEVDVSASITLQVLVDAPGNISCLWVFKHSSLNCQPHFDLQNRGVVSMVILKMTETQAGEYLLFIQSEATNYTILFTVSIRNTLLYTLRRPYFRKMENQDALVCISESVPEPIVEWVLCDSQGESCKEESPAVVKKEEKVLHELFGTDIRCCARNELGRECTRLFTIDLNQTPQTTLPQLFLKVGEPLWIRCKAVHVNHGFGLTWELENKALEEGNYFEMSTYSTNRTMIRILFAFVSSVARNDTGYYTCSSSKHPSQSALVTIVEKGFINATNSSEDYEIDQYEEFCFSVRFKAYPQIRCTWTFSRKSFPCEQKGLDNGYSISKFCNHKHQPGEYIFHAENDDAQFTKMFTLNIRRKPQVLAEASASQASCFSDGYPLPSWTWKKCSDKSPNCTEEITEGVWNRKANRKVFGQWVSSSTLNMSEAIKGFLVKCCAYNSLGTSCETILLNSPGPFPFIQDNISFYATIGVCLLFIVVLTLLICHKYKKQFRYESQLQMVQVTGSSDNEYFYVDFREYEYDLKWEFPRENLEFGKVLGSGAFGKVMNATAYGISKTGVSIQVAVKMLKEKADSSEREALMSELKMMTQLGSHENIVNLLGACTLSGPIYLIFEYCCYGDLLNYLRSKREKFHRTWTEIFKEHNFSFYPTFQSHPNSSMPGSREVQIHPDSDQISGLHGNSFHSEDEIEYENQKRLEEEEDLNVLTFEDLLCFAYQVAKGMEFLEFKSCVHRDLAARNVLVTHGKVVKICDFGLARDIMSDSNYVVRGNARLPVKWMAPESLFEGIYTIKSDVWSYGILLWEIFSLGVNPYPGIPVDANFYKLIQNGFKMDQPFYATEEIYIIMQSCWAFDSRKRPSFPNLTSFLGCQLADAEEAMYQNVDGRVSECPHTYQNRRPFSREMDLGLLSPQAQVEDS
Protocol: as §1, §2

cSRC(h) = cSRC(h) (Homo sapiens, UniProt P12931)
Protocol: as §1, §2

KDR(h) = KDR(h) (Homo sapiens, UniProt P35968)
Abl(h) = Abl(h) (Homo sapiens, UniProt P00519)
Abl(h), sequence (P00519 whole entry): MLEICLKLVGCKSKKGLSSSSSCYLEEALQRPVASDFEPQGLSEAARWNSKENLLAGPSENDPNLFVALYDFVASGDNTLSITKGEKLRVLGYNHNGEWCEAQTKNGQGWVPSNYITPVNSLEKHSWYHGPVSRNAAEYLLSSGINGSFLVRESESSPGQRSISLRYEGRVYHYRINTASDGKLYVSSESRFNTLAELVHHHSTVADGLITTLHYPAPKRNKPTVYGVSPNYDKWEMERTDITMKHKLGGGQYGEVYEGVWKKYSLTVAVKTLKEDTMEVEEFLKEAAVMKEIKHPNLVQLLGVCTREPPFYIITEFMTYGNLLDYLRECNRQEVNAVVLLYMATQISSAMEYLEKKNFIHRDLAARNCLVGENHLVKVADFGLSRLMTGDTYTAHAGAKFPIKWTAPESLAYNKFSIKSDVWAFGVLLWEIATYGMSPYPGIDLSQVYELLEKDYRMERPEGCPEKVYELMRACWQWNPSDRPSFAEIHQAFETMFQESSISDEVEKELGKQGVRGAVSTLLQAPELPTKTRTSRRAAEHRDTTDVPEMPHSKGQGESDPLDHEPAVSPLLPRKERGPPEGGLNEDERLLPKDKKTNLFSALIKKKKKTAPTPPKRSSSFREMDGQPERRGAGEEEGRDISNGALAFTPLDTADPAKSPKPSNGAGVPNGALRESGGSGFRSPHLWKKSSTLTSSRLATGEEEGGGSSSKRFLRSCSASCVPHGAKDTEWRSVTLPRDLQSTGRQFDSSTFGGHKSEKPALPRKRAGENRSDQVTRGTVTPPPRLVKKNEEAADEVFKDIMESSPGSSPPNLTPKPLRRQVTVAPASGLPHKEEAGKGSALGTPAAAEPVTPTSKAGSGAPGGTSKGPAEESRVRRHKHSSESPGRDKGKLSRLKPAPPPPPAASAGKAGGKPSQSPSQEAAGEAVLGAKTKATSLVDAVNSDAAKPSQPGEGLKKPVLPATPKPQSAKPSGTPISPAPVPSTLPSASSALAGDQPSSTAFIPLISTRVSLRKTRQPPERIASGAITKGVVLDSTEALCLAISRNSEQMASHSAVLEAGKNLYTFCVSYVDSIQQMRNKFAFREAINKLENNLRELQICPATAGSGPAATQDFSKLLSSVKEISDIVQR

KDR(h), sequence (P35968 20-1356): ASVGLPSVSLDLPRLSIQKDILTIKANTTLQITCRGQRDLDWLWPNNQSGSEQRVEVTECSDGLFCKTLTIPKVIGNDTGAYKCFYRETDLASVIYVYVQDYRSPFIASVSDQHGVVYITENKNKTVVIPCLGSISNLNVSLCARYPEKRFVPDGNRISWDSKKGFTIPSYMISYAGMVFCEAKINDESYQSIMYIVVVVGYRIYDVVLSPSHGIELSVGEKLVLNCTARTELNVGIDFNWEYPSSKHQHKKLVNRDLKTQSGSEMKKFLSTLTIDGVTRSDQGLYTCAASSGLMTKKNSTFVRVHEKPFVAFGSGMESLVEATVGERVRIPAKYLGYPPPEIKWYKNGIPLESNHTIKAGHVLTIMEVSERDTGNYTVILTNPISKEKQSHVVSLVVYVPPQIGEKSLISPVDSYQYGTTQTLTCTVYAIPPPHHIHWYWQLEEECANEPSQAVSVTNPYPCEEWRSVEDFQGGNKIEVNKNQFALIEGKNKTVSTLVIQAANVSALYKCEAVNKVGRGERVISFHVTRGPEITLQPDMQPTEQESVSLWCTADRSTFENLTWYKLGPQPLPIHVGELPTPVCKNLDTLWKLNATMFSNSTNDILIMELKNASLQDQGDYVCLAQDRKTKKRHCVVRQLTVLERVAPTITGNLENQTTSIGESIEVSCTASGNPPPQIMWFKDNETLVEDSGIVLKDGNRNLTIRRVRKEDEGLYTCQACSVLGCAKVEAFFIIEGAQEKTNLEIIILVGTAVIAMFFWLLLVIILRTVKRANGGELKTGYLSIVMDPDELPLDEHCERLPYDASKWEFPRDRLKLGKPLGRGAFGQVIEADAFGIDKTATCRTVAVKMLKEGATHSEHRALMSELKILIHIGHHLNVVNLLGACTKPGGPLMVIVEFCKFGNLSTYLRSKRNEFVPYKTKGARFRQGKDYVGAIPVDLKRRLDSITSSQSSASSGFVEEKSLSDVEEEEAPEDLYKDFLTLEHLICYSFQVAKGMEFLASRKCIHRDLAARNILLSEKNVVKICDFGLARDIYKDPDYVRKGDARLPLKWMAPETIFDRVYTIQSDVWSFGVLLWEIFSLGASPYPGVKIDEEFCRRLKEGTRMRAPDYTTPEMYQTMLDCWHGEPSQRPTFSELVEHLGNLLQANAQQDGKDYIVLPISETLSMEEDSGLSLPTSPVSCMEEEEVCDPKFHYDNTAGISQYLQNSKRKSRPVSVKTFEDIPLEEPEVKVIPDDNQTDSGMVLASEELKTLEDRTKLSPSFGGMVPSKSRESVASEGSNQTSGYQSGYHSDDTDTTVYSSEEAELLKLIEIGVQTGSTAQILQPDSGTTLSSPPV
Ret(h), sequence (P07949 29-1114): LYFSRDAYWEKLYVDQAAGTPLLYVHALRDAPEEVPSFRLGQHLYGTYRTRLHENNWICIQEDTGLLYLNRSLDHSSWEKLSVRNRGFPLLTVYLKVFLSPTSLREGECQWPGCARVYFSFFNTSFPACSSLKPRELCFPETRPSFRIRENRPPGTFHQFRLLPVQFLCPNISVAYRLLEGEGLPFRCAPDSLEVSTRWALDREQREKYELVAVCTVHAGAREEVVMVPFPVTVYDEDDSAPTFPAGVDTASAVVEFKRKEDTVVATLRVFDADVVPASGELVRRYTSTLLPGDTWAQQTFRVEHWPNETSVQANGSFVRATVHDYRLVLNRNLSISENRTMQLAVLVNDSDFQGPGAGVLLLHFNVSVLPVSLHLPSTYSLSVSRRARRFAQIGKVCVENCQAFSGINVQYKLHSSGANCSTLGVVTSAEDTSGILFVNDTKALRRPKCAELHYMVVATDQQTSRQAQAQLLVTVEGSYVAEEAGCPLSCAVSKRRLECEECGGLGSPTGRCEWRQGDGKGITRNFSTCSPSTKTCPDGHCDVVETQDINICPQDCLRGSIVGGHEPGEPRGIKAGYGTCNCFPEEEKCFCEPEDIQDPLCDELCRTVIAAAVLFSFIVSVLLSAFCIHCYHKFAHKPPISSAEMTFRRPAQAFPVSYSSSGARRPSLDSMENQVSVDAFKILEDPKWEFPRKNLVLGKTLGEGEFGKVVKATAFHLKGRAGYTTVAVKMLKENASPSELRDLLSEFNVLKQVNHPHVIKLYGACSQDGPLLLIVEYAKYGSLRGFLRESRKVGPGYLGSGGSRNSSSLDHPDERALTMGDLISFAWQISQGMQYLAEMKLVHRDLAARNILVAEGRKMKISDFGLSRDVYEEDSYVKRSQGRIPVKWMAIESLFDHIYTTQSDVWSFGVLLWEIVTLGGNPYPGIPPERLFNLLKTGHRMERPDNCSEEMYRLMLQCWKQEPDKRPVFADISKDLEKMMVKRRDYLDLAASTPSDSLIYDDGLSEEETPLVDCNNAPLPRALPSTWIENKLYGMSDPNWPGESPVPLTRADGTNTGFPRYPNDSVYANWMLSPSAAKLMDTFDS
cSRC(h), sequence (P12931 whole entry): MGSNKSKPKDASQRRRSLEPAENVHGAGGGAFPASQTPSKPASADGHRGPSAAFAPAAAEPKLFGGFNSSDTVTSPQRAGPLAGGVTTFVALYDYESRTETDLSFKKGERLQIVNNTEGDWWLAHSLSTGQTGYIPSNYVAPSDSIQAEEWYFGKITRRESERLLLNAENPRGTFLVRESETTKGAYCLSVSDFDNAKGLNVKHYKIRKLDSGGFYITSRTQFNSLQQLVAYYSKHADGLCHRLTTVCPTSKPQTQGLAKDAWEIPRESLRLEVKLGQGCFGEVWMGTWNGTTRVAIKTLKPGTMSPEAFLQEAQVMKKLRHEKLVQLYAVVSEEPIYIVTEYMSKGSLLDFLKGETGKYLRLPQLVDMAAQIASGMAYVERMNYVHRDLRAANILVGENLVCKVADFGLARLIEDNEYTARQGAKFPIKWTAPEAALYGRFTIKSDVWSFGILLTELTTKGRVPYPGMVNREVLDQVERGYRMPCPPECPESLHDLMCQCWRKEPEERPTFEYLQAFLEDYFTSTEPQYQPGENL

| SMILES | inhibition at 1 µM (Aurora-A(h)) | inhibition at 1 µM (Ret(h)) | inhibition at 1 µM (Flt3(h)) | inhibition at 1 µM (cSRC(h)) | inhibition at 1 µM (KDR(h)) | inhibition at 1 µM (Abl(h)) |
| --- | --- | --- | --- | --- | --- | --- |
| Cc1cc2c(F)c(Oc3nc(Nc4cc(C5CC5)[nH]n4)cc(N4CCOCC4)n3)ccc2[nH]1 [Compound 13] | 100% | 100% | 101% | 100% | 96% | 112% |
| Cc1cc2c(F)c(Oc3nc(Nc4cc(C5CC5)[nH]n4)cc(N4CC(O)C4)n3)ccc2[nH]1 [Compound 15] | 101% | 101% | 100% | 99% | 91% | 108% |
| COC1CCN(c2cc(Nc3cc(C4CC4)[nH]n3)nc(Oc3ccc4[nH]c(C)cc4c3F)n2)C1 (stereo not drawn) [Compound 16] | 101% | 101% | 98% | 100% | 92% | 103% |
| Cc1cc2c(F)c(Oc3nc(Nc4cc(C5CC5)[nH]n4)cc(N4CCC(N(C)C)C4)n3)ccc2[nH]1 (stereo not drawn) [Compound 17] | 100% | 98% | 100% | 98% | 93% | 108% |
| CC(=O)N1CCN(c2cc(Nc3cc(C4CC4)[nH]n3)nc(Oc3ccc4[nH]c(C)cc4c3F)n2)CC1 [Compound 18] | 100% | 97% | 100% | 99% | 93% | 107% |
| Cc1cc2c(F)c(Oc3nc(Nc4cc(C5CC5)[nH]n4)cc(N4CCNC(=O)C4)n3)ccc2[nH]1 [Compound 19] | 100% | 100% | 99% | 99% | 93% | 108% |
| Cc1cc2c(F)c(Oc3nc(Nc4cc(C5CC5)[nH]n4)cc(N4C[C@@H](C)N[C@@H](C)C4)n3)ccc2[nH]1 [Compound 20] | 99% | 100% | 100% | 99% | 93% | 107% |
| Cc1cc2c(F)c(Oc3nc(Nc4cc(C5CC5)[nH]n4)cc(N4CCC(O)CC4)n3)ccc2[nH]1 [Compound 21] | 100% | 100% | 101% | 98% | 87% | 107% |
| Cc1cc2c(F)c(Oc3nc(Nc4cc(C5CC5)[nH]n4)cc(N4CCC(F)CC4)n3)ccc2[nH]1 [Compound 22] | 101% | 101% | 100% | 100% | 92% | 108% |
| Cc1cc2c(F)c(Oc3nc(Nc4cc(C5CC5)[nH]n4)cc(N4CCN(S(C)(=O)=O)CC4)n3)ccc2[nH]1 [Compound 23] | 101% | 100% | 100% | 100% | 93% | 108% |
| Cc1cc2c(F)c(Oc3nc(Nc4cc(C5CC5)[nH]n4)cc(N4CCN(c5ccccn5)CC4)n3)ccc2[nH]1 [Compound 25] | 101% | 101% | 100% | 100% | 93% | 108% |
| Cc1cc2c(F)c(Oc3nc(Nc4cc(C5CC5)[nH]n4)cc(N4CCN(c5cccnc5)CC4)n3)ccc2[nH]1 [Compound 26] | 101% | 101% | 100% | 100% | 93% | 109% |
| Cc1cc2c(F)c(Oc3nc(Nc4cc(C5CC5)[nH]n4)cc(N4CCN(c5ccncc5)CC4)n3)ccc2[nH]1 [Compound 27] | 101% | 101% | 100% | 99% | 92% | 108% |
| COCCN1CCN(c2cc(Nc3cc(C4CC4)[nH]n3)nc(Oc3ccc4[nH]c(C)cc4c3F)n2)CC1 [Compound 28] | 101% | 101% | 100% | 96% | 89% | 108% |
| Cc1cc2c(F)c(Oc3nc(Nc4cc(C5CC5)[nH]n4)cc(N4CCOC(CN(C)C)C4)n3)ccc2[nH]1 (stereo not drawn) [Compound 30] | 100% | 101% | 100% | 99% | 94% | 110% |
| CCN1CCN(c2cc(Nc3cc(C4CC4)[nH]n3)nc(Oc3ccc4[nH]c(C)cc4c3F)n2)CC1 [Compound 31] | 101% | 102% | 101% | 104% | 91% | 115% |
| Cc1cc2c(F)c(Oc3nc(Nc4cc(C5CC5)[nH]n4)cc(N4CCN(CC(F)(F)F)CC4)n3)ccc2[nH]1 [Compound 38] | 80% | 101% | 98% | 98% | 95% | 108% |
| Cc1cc2c(F)c(Oc3nc(Nc4cc(C5CC5)[nH]n4)cc(N4CCOC(CN)C4)n3)ccc2[nH]1 (stereo not drawn) [Compound 39] | 98% | 101% | 98% | 97% | 95% | 110% |
| CCC1CN(c2cc(Nc3cc(C4CC4)[nH]n3)nc(Oc3ccc4[nH]c(C)cc4c3F)n2)CCN1 (stereo not drawn) [Compound 41] | 87% | 101% | 99% | 97% | 94% | 108% |
| Cc1cc2c(F)c(Oc3nc(Nc4cc(C5CC5)[nH]n4)cc(N4CCN(CCN(C)C)CC4)n3)ccc2[nH]1 [Compound 42] | 93% | 102% | 100% | 101% | 96% | 110% |
| Cc1cc2c(F)c(Oc3nc(Nc4cc(C5CC5)[nH]n4)cc(N4CCNC(CO)C4)n3)ccc2[nH]1 (stereo not drawn) [Compound 43] | 87% | 102% | 99% | 101% | 95% | 111% |
